Data as given in US20260083714A1, “DOSING REGIMEN FOR TREATING PKU WITH A PIPERIDINE INHIBITOR OF SLC6A19 FUNCTION” (Jnana Therapeutics Inc., priority 2022, published 2026).
Where two headings read alike, the source gives them in different places.

Key:
[1] = target: T1, SLC6A19 (Homo sapiens, UniProt Q695T7); assay: Amino acid excretion over 24 h after a single dose of suspension in healthy volunteers; format: in vivo
T1 construct: SCL6A19 is located in the proximal tubule of the kidney and is responsible for reabsorption of amino acids back into the blood; from tissue; host or cells: Kidney proximal tubule of healthy volunteers (in vivo, endogenous)
T1 sequence (Q695T7 1-634): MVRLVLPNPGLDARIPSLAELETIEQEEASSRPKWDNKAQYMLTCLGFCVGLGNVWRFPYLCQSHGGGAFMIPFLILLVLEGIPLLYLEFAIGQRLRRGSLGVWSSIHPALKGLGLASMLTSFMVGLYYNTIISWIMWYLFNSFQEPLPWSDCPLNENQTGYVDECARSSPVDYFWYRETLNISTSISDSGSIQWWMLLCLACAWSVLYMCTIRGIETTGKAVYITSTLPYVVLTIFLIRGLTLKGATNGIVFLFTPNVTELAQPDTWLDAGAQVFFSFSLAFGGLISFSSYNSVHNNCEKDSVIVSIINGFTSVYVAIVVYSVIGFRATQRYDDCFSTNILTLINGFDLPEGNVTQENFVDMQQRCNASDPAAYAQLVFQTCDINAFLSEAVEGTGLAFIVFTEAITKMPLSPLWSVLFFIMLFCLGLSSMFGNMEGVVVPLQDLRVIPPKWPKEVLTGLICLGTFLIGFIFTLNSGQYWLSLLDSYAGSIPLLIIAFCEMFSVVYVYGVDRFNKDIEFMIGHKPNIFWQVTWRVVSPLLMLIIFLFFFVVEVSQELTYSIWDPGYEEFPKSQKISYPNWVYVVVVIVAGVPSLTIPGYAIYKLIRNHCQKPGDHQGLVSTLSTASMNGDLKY
T1 sequence (Q9HBJ8 15-222 partner): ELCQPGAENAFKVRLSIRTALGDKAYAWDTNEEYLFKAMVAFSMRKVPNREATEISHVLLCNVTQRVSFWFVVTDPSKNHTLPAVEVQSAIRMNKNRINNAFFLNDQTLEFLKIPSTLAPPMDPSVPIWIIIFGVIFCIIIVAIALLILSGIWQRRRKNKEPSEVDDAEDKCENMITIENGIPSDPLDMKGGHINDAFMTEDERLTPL
Protocol: FIG. 1 is a graph of the pharmacodynamic effect of Compound 1 in healthy volunteers showing changes in total phenylalanine or overall SLC6A19 amino acid substrates (Hartnup amino acids) excretion over 24 hours following administration of a single dose of the compound (10-170 mg) in the form of a suspension.
A suspension formulation of varying doses of Compound 1 (10-170 mg) was administered to healthy volunteers. Changes in amino acid excretion over 24 h following a single dose were measured (FIG. 1). Up to a 14-fold increase in total Phe excretion (from 10 mg to 142 mg) and a 16-fold increase in Hartnup AA excretion (from 0.29 g to 4.8 g) were observed over 24 hr after dosing (Tables 13A and 13B).

[2] = Plasma levels of Compound 1 over 72 h, suspension versus tablet, fasted or fed, in healthy volunteers; format: in vivo; settings: human, oral, 100 mg, read-out: Plasma level, Mean; for concentration at 0.5 h: 0.5 h post-dose; for concentration at 1 h: 1 h post-dose; for concentration at 1.5 h: 1.5 h post-dose; for concentration at 2 h: 2 h post-dose; for concentration at 2.5 h: 2.5 h post-dose; for concentration at 3 h: 3 h post-dose; for concentration at 4 h: 4 h post-dose; for concentration at 6 h: 6 h post-dose; for concentration at 8 h: 8 h post-dose; for concentration at 10 h: 10 h post-dose; for concentration at 12 h: 12 h post-dose; for concentration at 24 h: 24 h post-dose; for concentration at 36 h: 36 h post-dose; for concentration at 48 h: 48 h post-dose; for concentration at 72 h: 72 h post-dose; for concentration at 0 h: 0 h post-dose
Protocol: FIG. 4 is a graph of the pharmacokinetics of Compound 1 over 72 hours in healthy volunteers in fed or fasted states when administering 100 mg of the compound as a suspension formulation or a tablet.
A suspension formulation (100 mg, fasted) and tablet formulation (100 mg, fasted or fed) of Compound 1 was administered to healthy volunteers. Plasma levels of Compound 1 over 72 was measured (FIG. 4). Post-dose plasma levels are recited in Table 16.

[3] = single dose suspension, highest value of 10-170 mg

## NC(=O)N1CCC[C@@H](N(C(=O)NCc2ccc(OC(F)(F)F)cc2F)C2CC2)C1 [Cpd 1, (R)-3-(1-cyclopropyl-3-(2-fluoro-4-(trifluoromethoxy)benzyl)ureido) piperidine-1-carboxamide]
[1]; single dose 10 mg suspension
  Excretion amounts over 24 h, Hartnup Amino Acids, Mean: 712.45 mg
  Excretion amounts over 24 h, Phenylalanine, Mean: 12.50 mg
[1]; single dose 25 mg suspension
  Excretion amounts over 24 h, Hartnup Amino Acids, Mean: 1213.02 mg
  Excretion amounts over 24 h, Phenylalanine, Mean: 21.02 mg
[1]; single dose 50 mg suspension
  Excretion amounts over 24 h, Hartnup Amino Acids, Mean: 2560.22 mg
  Excretion amounts over 24 h, Phenylalanine, Mean: 51.53 mg
[1]; single dose 100 mg suspension
  Excretion amounts over 24 h, Hartnup Amino Acids, Mean: 3281.75 mg
  Excretion amounts over 24 h, Phenylalanine, Mean: 77.84 mg
[1]; single dose 170 mg suspension
  Excretion amounts over 24 h, Hartnup Amino Acids, Mean: 4823.71 mg
  Excretion amounts over 24 h, Phenylalanine, Mean: 141.61 mg
[1]; single dose 10-170 mg suspension, versus 10 mg baseline
  increase in total Phe excretion over 24 hr after dosing: ≤ 14 fold
[1]; single dose 10-170 mg suspension, versus 0.29 g baseline
  increase in Hartnup AA excretion over 24 hr after dosing: ≤ 16 fold
[1]; [3]
  Hartnup AA excretion over 24 hr after dosing: 4.8 g
  total Phe excretion over 24 hr after dosing: 142 mg
[2]; 100 mg suspension, fasted
  concentration at 0.5 h: 1.84 µg/mL
  concentration at 1 h: 2.31 µg/mL
  concentration at 1.5 h: 2.44 µg/mL
  concentration at 2 h: 2.63 µg/mL
  concentration at 2.5 h: 2.62 µg/mL
  concentration at 3 h: 2.72 µg/mL
  concentration at 4 h: 2.75 µg/mL
  concentration at 6 h: 2.09 µg/mL
  concentration at 8 h: 1.58 µg/mL
  concentration at 10 h: 1.11 µg/mL
  concentration at 12 h: 0.778 µg/mL
  concentration at 24 h: 0.216 µg/mL
  concentration at 36 h: 0.05 µg/mL
  concentration at 48 h: 0.0242 µg/mL
  concentration at 72 h: 0.0129 µg/mL
[2]; 100 mg tablet, fasted
  concentration at 0 h: 0.0121 µg/mL
  concentration at 0.5 h: 1.6 µg/mL
  concentration at 1 h: 2.11 µg/mL
  concentration at 1.5 h: 2.4 µg/mL
  concentration at 2 h: 2.55 µg/mL
  concentration at 2.5 h: 2.53 µg/mL
  concentration at 3 h: 2.58 µg/mL
  concentration at 4 h: 2.58 µg/mL
  concentration at 6 h: 2.07 µg/mL
  concentration at 8 h: 1.65 µg/mL
  concentration at 10 h: 1.25 µg/mL
  concentration at 12 h: 0.891 µg/mL
  concentration at 24 h: 0.324 µg/mL
  concentration at 36 h: 0.0595 µg/mL
  concentration at 48 h: 0.029 µg/mL
  concentration at 72 h: 0.0115 µg/mL
[2]; 100 mg tablet, fed
  concentration at 0 h: 0.0121 µg/mL
  concentration at 0.5 h: 1.66 µg/mL
  concentration at 1 h: 2.22 µg/mL
  concentration at 1.5 h: 2.32 µg/mL
  concentration at 2 h: 2.85 µg/mL
  concentration at 2.5 h: 2.91 µg/mL
  concentration at 3 h: 2.95 µg/mL
  concentration at 4 h: 2.86 µg/mL
  concentration at 6 h: 2.26 µg/mL
  concentration at 8 h: 1.74 µg/mL
  concentration at 10 h: 1.27 µg/mL
  concentration at 12 h: 0.963 µg/mL
  concentration at 24 h: 0.329 µg/mL
  concentration at 36 h: 0.0901 µg/mL
  concentration at 48 h: 0.045 µg/mL
  concentration at 72 h: 0.015 µg/mL
